Source: ChEMBL document CHEMBL1255200, “Exploration of piperidine-4-yl-aminopyrimidines as HIV-1 reverse transcriptase inhibitors. N-Phenyl derivatives with broad potency against resistant mutant viruses” (Bioorg Med Chem Lett, 2010)

Legend:
[1] = target: Human immunodeficiency virus type 1 reverse transcriptase (Human immunodeficiency virus 1, UniProt Q72547); assay: Inhibition of HIV1 recombinant wild type reverse transcriptase by SPA heteropolymeric assay
[2] = target: Human immunodeficiency virus type 1 reverse transcriptase (Human immunodeficiency virus 1, UniProt Q72547, K103N/Y181C); assay: Inhibition of HIV1 recombinant reverse transcriptase K103N/Y181C double mutant by SPA heteropolymeric assay
[3] = target: Human immunodeficiency virus type 1 reverse transcriptase (Human immunodeficiency virus 1, UniProt Q72547, Y188L); assay: Inhibition of HIV1 recombinant reverse transcriptase Y188L mutant by SPA heteropolymeric assay
[4] = test system: Human immunodeficiency virus 1; assay: Antiviral activity against HIV1 harboring reverse transcriptase V106A mutant infected in human MT4 cells assessed as reduction of virus-induced cytopathic effect by replication assay in presence of 10% FBS; format: functional, organism-based; settings: Human immunodeficiency virus 1, MT4
[5] = test system: Human immunodeficiency virus 1; assay: Antiviral activity against wild type HIV1 infected in human MT4 cells assessed as reduction of virus-induced cytopathic effect by replication assay in presence of 40% human serum; format: functional, organism-based; settings: Human immunodeficiency virus 1, MT4
[6] = test system: Human immunodeficiency virus 1; assay: Antiviral activity against HIV1 harboring reverse transcriptase Y188L mutant infected in human MT4 cells assessed as reduction of virus-induced cytopathic effect by replication assay in presence of 10% FBS; format: functional, organism-based; settings: Human immunodeficiency virus 1, MT4
[7] = Clearance in human liver microsomes; format: ADME, Microsome
[8] = test system: Human immunodeficiency virus 1; assay: Antiviral activity against wild type HIV1 infected in human MT4 cells assessed as reduction of virus-induced cytopathic effect by replication assay in presence of 10% FBS; format: functional, organism-based; settings: Human immunodeficiency virus 1, MT4
[9] = test system: Human immunodeficiency virus 1; assay: Antiviral activity against HIV1 harboring reverse transcriptase K103N/Y181C double mutant infected in human MT4 cells assessed as reduction of virus-induced cytopathic effect by replication assay in presence of 10% FBS; format: functional, organism-based; settings: Human immunodeficiency virus 1, MT4
[10] = test system: Human immunodeficiency virus 1; assay: Antiviral activity against HIV1 harboring reverse transcriptase K103N/L100I double mutant infected in human MT4 cells assessed as reduction of virus-induced cytopathic effect by replication assay in presence of 10% FBS; format: functional, organism-based; settings: Human immunodeficiency virus 1, MT4
[11] = test system: Human immunodeficiency virus 1; assay: Selectivity ratio of IC50 for wild type HIV1 in presence of 40% human serum to IC50 for wild type HIV1 in presence of 10% FBS; format: functional

SMILES | IC50 [1] [nM] | IC50 [2] [nM] | IC50 [3] [nM] | IC50 [4] [nM] | IC50 [5] [nM] | IC50 [6] [nM] | microsomal CLint [7] [µL/min/mg] | IC50 [8] [nM] | IC50 [9] [nM] | IC50 [10] [nM] | Ratio IC50 [11]
Cc1cc(C#N)cc(C)c1Oc1nc(NC2CCN(c3cccc(C(=O)O)c3)CC2)ncc1Br | 16 | > 1000 | – | – | – | – | – | – | – | – | –
Cc1cc(C#N)cc(C)c1Oc1ccnc(NC2CCN(c3ccc(S(N)(=O)=O)cc3)CC2)n1 | 24 | > 1000 | > 1000 | – | – | – | – | – | – | – | –
Cc1cc(C#N)cc(C)c1Oc1nc(NC2CCN(c3cccc(S(C)(=O)=O)c3)CC2)ncc1Br | 42 | 100 | 831 | – | – | – | – | – | – | – | –
Cc1cc(C#N)cc(C)c1Oc1ccnc(NC2CCN(c3cccc(C#N)c3)CC2)n1 | 51 | 772 | – | – | – | – | – | – | – | – | –
Cc1cc(C#N)cc(Cl)c1Nc1nc(NC2CCN(c3cccc(C(N)=O)c3)CC2)ncc1Br | 15 | 15 | 42 | 0.5 | 9.9 | < 1.2 | 418 | 1.2 | 4.9 | 2.9 | 8.6
Cc1cc(C#N)cc(C)c1Oc1nc(NC2CCN(c3cccc(S(N)(=O)=O)c3)CC2)ncc1Br | 19 | 72 | 105 | – | – | – | – | – | – | – | –
Cc1cc(C#N)cc(C)c1Oc1nc(NC2CCN(c3ccc(C(N)=O)cc3)CC2)ncc1Br | 24 | > 1000 | – | – | – | – | – | – | – | – | –
COc1cc(C#N)cc(C)c1Oc1nc(NC2CCN(c3cccc(C(N)=O)c3)CC2)ncc1Cl | 19 | 19 | 101 | – | – | – | – | – | – | – | –
COc1cc(C#N)cc(C)c1Oc1ccnc(NC2CCN(c3cccc(C(N)=O)c3)CC2)n1 | 18 | 18 | 64 | – | – | – | – | – | – | – | –
Cc1cc(C#N)cc(C)c1Oc1nc(Nc2ccc(C#N)cc2)nc(N)c1Br [ETRAVIRINE] | – | – | – | – | – | – | 29 | – | 9.2 | – | –
Cc1cc(C#N)cc(C)c1Oc1nc(NC2CCN(c3cccc(C(N)=O)c3)CC2)ncc1F | 14 | 14 | 35 | – | – | – | – | – | – | – | –
Cc1cc(C#N)cc(C)c1Oc1nc(NC2CCN(Cc3ccc(S(N)(=O)=O)cc3Cl)CC2)ncc1Br | – | – | – | 2 | 48.7 | 2.8 | 151 | 6.1 | 7.3 | 5.9 | 8
Cc1cc(C#N)cc(C)c1Oc1ccnc(NC2CCN(c3cc(Cl)cc(C(N)=O)c3)CC2)n1 | 28 | 265 | – | – | – | – | – | – | – | – | –
Cc1cc(C#N)cc(Cl)c1Nc1ccnc(NC2CCN(c3cccc(C(N)=O)c3)CC2)n1 | 36 | 36 | – | – | – | – | – | – | – | – | –
Cc1cc(C#N)cc(Cl)c1Oc1nc(NC2CCN(c3cccc(C(N)=O)c3)CC2)ncc1Cl | 20 | 20 | 48 | – | – | – | – | – | – | – | –
Cc1cc(C#N)cc(C)c1Oc1nc(NC2CCN(c3ccccc3C(N)=O)CC2)ncc1Br | 32 | 967 | – | – | – | – | – | – | – | – | –
Cc1cc(C#N)cc(C)c1Nc1ccnc(NC2CCN(c3cccc(C(N)=O)c3)CC2)n1 | 23 | 23 | – | 0.8 | 13.9 | 3.7 | 31 | 0.5 | 15.2 | > 100 | 27.1
Cc1cc(C#N)cc(C)c1Oc1nc(NC2CCN(c3cccc(C(N)=O)c3)CC2)ncc1Cl | 24 | 13 | 203 | – | – | – | – | – | – | – | –
Cc1cnc(NC2CCN(c3cccc(C(N)=O)c3)CC2)nc1Oc1c(C)cc(C#N)cc1Cl | 6 | 6 | – | 0.7 | 14.2 | 1.4 | 580 | 1.6 | 5.5 | 7.4 | 8.6

SMILES | IC50 [1] [nM] | IC50 [2] [nM] | IC50 [3] [nM] | IC50 [4] [nM] | IC50 [5] [nM] | IC50 [6] [nM] | microsomal CLint [7] [µL/min/mg] | IC50 [8] [nM] | IC50 [9] [nM] | IC50 [10] [nM] | Ratio IC50 [11]
Cc1cc(C#N)cc(C)c1Oc1nc(NC2CCN(c3cccc(C(N)=O)c3)CC2)ncc1N | 19 | 17 | 118 | – | – | – | – | – | – | – | –
O=C1Nc2ccc(Cl)cc2[C@@](C#CC2CC2)(C(F)(F)F)O1 [EFAVIRENZ] | – | – | – | – | – | > 100 | – | – | 82.8 | > 100 | –
COc1cc(C#N)cc(C)c1Oc1nc(NC2CCN(c3cccc(C(N)=O)c3)CC2)ncc1Br | 56 | 56 | – | – | – | – | – | – | – | – | –
Cc1cc(C#N)cc(C)c1Nc1nc(NC2CCN(c3cccc(C(N)=O)c3)CC2)ncc1Br | 19 | 19 | 75 | 0.9 | 14.2 | 2.7 | 42 | 1.5 | 11.7 | 10.8 | 9.8
Cc1cc(C#N)cc(C)c1Oc1nc(NC2CCN(c3cccc(C(N)=O)c3)CC2)ncc1C(F)(F)F | 86 | 41 | – | – | – | – | – | – | – | – | –
Cc1cc(C#N)cc(Cl)c1Oc1ccnc(NC2CCN(c3cccc(C(N)=O)c3)CC2)n1 | 8 | 8 | – | – | 7.5 | 1.6 | 274 | 0.4 | 5.3 | 42 | 17.4
Cc1cc(C#N)cc(Cl)c1Oc1nc(NC2CCN(c3cccc(C(N)=O)c3)CC2)ncc1Br | 28 | 28 | 413 | – | – | – | – | – | – | – | –
Cc1cc(C#N)cc(C)c1Oc1ccnc(NC2CCN(c3cccc(S(C)(=O)=O)c3)CC2)n1 | 11 | 238 | – | – | – | – | – | – | – | – | –
Cc1cc(C#N)cc(C)c1Oc1nc(NC2CCN(c3cc(C(N)=O)ccc3Cl)CC2)ncc1Br | 76 | > 1000 | 874 | – | – | – | – | – | – | – | –
Cc1cc(C#N)cc(C)c1Oc1nc(NC2CCN(c3cccc(C(N)=O)c3)CC2)ncc1Br | 19 | 30 | 70 | – | – | – | – | – | – | – | –
Cc1cc(C#N)cc(C)c1Oc1nc(NC2CCN(c3cccc(C#N)c3)CC2)ncc1Br | 103 | 352 | – | – | – | – | – | – | – | – | –
COc1cc(C#N)cc(C)c1Oc1nc(NC2CCN(c3cccc(C(N)=O)c3)CC2)ncc1C | 21 | 21 | 66 | – | – | – | – | – | – | – | –
Cc1cnc(NC2CCN(c3cccc(C(N)=O)c3)CC2)nc1Oc1c(C)cc(C#N)cc1C | 12 | 15 | – | 0.6 | 4.5 | < 1.2 | 730 | 1.1 | 3.8 | 6.7 | 4
Cc1cc(C#N)cc(C)c1Oc1nc(NC2CCN(c3cccc(C(N)=O)c3)CC2)ncc1[N+](=O)[O-] | 109 | 64 | – | – | – | – | – | – | – | – | –
Cc1cc(C#N)cc(C)c1Oc1ccnc(NC2CCN(c3ccc(Cl)c(C(N)=O)c3)CC2)n1 | 9 | 192 | – | – | – | – | – | – | – | – | –
Cc1cc(C#N)cc(F)c1Oc1nc(NC2CCN(c3cccc(C(N)=O)c3)CC2)ncc1Br | 6 | 6 | 29 | 3.9 | 18.2 | 5.5 | 82 | 7.3 | 28 | 18.4 | 2.5
Cc1cc(C#N)cc(C)c1Oc1ccnc(NC2CCN(c3cccc(C(N)=O)c3)CC2)n1 | 7 | 16 | 34 | – | – | – | – | – | – | – | –
Cc1cc(C#N)cc(C)c1Oc1ccnc(NC2CCN(c3cccc(S(N)(=O)=O)c3)CC2)n1 | 15 | 622 | 194 | – | – | – | – | – | – | – | –
